Assays:
[1] = system: Hsp70 levels in U251MG cells; test: Biomarker quantitation by ELISA, Hsp70; type: cell-based; conditions: 15.6 uM, 48 h
Procedure: (§1) U251 cells were plated in 6 well format culture dishes overnight at 37° C. with 5% CO2 and then treated with increasing concentrations of test compounds for 48 h at 37° C. with 5% CO2. Quantification of total Akt1, EGFR, and Hsp70 in cell lysates was accomplished using ELISA kits (R&D Systems) according to the manufacturer's recommendations and utilizing a Synergy HT micro-titer plate reader (Biotek). Cell lysates were prepared as recommended in the kit procedure. Protein concentrations of lysates clarified using centrifugation were determined using a Bradford assay (Thermo Scientific), and the values were used to normalize the biomarker values.

[2] = system: Akt1 levels in U251MG cells; test: Biomarker quantitation by ELISA, Akt1; type: cell-based
Procedure: as §1

[3] = system: mitochondria isolated from U251MG cells; test: TMRE assay, TMRE-loaded isolated mitochondria; type: cell-based; conditions: 30° C.
Procedure: For cell-based assays, cells were treated with various concentrations of the test compounds for 48 hours at 37° C., with 5% CO2. TMRE (200 nM) was then added to wells for 30 min and monitored for changes in fluorescence activity either by fluorescence microscopy using an inverted Zeiss LSM 710 confocal microscope or by spectrophotometry using a fluorescence plate reader (544ex/590em) after washing the cells. Specific TMRE fluorescence was calculated by comparison to matched wells pretreated with 20 uM FCCP for 10 min prior to addition of TMRE. For mitochondria assays, untreated U251MG cells grown to confluence in T75 culture flasks. Mitochondria from these cells were isolated using a mitochondria isolation kit (Thermo Scientific) and loaded with 0.1 mM TMRE in kit buffer at 37° C. for 20 min. After washing, the TMRE-loaded mitochondria (2 ug per well) were incubated in a 96 well black plate with test compounds and monitored kinetically at 30° C. for changes in fluorescence using a fluorescence plate reader (ex 544/em 590). The fluorescence intensity after treatment with 20 um FCCP in control wells corresponded to a fully depolarized state.

GBM39 = test: Cellular efficacy in Mayo Clinic GBM PDX cell line GBM39; type: cell-based
Procedure: (§2) Short-term explant cultures from PDX models were seeded into 96-well Perfecta3D hanging drop plates to form a single spheroid in each well after 2 days. The spheroids were transferred to a round bottom 96 well plate by centrifugation and then incubated with graded concentrations of test compound (8 spheroids per compound concentration). Spheroid volumes were monitored every 6 hours over the course of 5 days using the IncuCyte system (Essen BioScience, MI, US) to provide a growth curve akin to a tumor regrowth assay.

[4] = system: Mayo Clinic patient derived GBM tumor cells; test: Mayo Clinic patient derived GBM tumor cell proliferation; type: cell-based; conditions: 132 hours
Procedure: as §2

HEI193 cells = test: TMRE assay, HEI193 cell mitochondrial integrity; type: cell-based, human; conditions: observed as early as 2 hours after treatment
Procedure: (§3) Mitochondrial integrity was evaluated using Tetramethylrhodamine ethyl ester (TMRE) assay. A TMRE assay kit (Abcam) was used to evaluate Hsp90/TRAP1 inhibitor-induced changes in mitochondrial membrane potential. […] TMRE (200 nM) was then added to wells for 30 min and monitored for changes in fluorescence activity using a fluorescence plate reader (ex544/em 590) after washing the cells. Specific TMRE fluorescence was calculated by comparison to matched wells pretreated with the depolarizing proton ionophore carbonyl cyanide 4-(trifluoromethoxy)phenylhydrazone (FCCP) at 20 uM 10 min prior to addition of TMRE. For mitochondria assays, mitochondria was isolated using a kit from Thermoscientific and loaded with 0.1 mM TMRE. TMRE-loaded mitochondria (2 μg per well) were incubated with test compounds and monitored kinetically at 30° C. for changes in fluorescence using a flurorescence plate reader (ex 544/em 590) (FIGS. 6A, 9A and 12).

GBM10 = test: Cellular efficacy in Mayo Clinic GBM PDX cell line GBM10; type: cell-based
Procedure: as §2

[5] = system: Hsp90 client proteins (Akt1, ERK1) in MDA-MB-231 cell line; test: Cellular biomarker assays (Akt1, ERK1 ELISA) in MDA-MB-231; type: cell-based; conditions: 48 hours
Procedure: (§4) Cellular biomarker assays: Cells were cultured in culture medium (RPMI-glutamax, 10% FCS, 100 units/ml penicillin, and 100 μg/ml streptomycin). Cells were passaged after lifting using 0.25% trypsin/EDTA, and 3×10^5 cells were seeded in each well of six well plates (total volume 2.5 mL/well). After the cells were cultured for 24 hours, increasing concentrations of Hsp90 inhibitor were added to wells in triplicate from DMSO-containing stock solutions and mixed by gently by stirring. Final DMSO concentration in all wells was 0.25%. The treated cells were then cultured for 48 hours prior to lysate preparation. The culture media was removed from wells, and the wells were washed twice with DPBS containing 1 mM CaCl2 and 0.5 mM MgCl2. […] The protein concentration in the cell lysates was determined using the BCA protein assay kit used according to the manufacturer's recommendations. […] Protein concentrations were determined using a micro-titer plate reader (Model # Synergy HT; BioTek Inc., Winooski, Vt.).
(§5) Akt1 and ERK1 levels in the cell lysates were measured using kits from R&D Systems used according to the manufacturer's recommendations. […] Akt1 and ERK1 levels were determined using a micro-titer plate reader (Model # Synergy HT; BioTek Inc., Winooski, Vt.) (FIGS. 5 and 8).

[6] = system: Hsp90 client proteins (EGFR and Akt1) in Mayo Clinic GBM PDX cell lines; test: Cellular biomarker assays (EGFR, Akt1 ELISA) in Mayo Clinic GBM PDX cell lines; type: cell-based; conditions: 48 hours; three cell lines
[7] = system: Hsp90 client proteins (Akt1, ERK1) in HEI193; test: Cellular biomarker assays (Akt1, ERK1 ELISA) in HEI193; type: cell-based, human; conditions: 48 hour treatment
Procedure: as §4, §5

MDA-MB-231 cells = test: TMRE assay, MDA-MB-231 cell mitochondrial integrity; type: cell-based; conditions: 2 hours or 4 hours
Procedure: as §3

EC50 (GBM39) [nM]	EC50 (GBM10) [nM]	SMILES	Increase of Hsp70 levels [1] [fold]	Reduction of Akt1 levels ([2]; 15.6 uM, 48 h) [%]	IC50 ([2]; Homo sapiens, U-251, 48 h, read-out: Akt1 level reduction IC50) [nM]	Membrane potential of isolated mitochondria reduced to ([3]; 4 uM) [%]	Membrane potential of isolated mitochondria reduced to ([3]; 20 uM) [%]	Effect on patient derived GBM tumor cell proliferation [4]	Effect on TMRE fluorescence in HEI193 cells (HEI193 cells)	Effect on Akt1 and ERK1 levels, MDA-MB-231 [5]	Effect on EGFR and Akt1 levels, GBM PDX cell lines [6]	Effect on Akt1 and ERK1 levels, HEI193 [7]	Effect on TMRE fluorescence of MDA-MB-231 cells (MDA-MB-231 cells)
		COc1c(C)cnc(CN(CCc2ccccn2)c2cc(Cl)nc(N)n2)c1C [Compound 1, 6-chloro-4-N-[(4-methoxy-3,5-dimethylpyridin-2yl)methyl]-4-N-[2-(pyridine-2-yl)ethyl]pyrimidine-2,4-amine]	6	79	2400	61	52						
220	280	COc1c(C)cnc(CN(CC2(c3ccc(F)cc3)CCOCC2)c2cc(Cl)nc(N)n2)c1C [Compound A, 6-chloro-4-N-{[4-(4-fluorophenyl)oxan-4-yl]methyl}-4-N-[(4-methoxy-3,5-dimethylpyridin-2-yl)methyl]pyrimidine-2,4-diamine]						inhibit	dose-dependent decrease	suppression of Hsp90 client proteins	suppression of Hsp90 client proteins	reduction of Hsp90 client proteins	dose-dependent decrease

Source: patent publication US10189824B2, “Pyrimidine-diamine dual HSP90/TRAP1 inhibitors” (CalAsia Pharmaceuticals, Inc., priority 2014, dated 2019)
